Columns and labels:
PHD2 = PHD2 expression (qPCR) in bone marrow-derived monocyte/macrophage cultures upon cytokine stimulation; type: cell-based, mice; conditions: for PHD2 transcripts: WT cultures, any of the concentrations tested (50 and 250 ng/mL)
Method: Quantitative PCR Analysis: In order to investigate gene expression in pMØ, quantitative RT-PCR (qRT-PCR) was performed. After preparing pMØ, the cells were cultured in normoxic condition for twelve hours, and the RNA was extracted. To analyze the gene profile of adductor, gastrocnemius, and soleus muscle, tissues were collected at baseline or 24 hours/72 hours post-ischemia and RNA was extracted. Macrophages and ECs were freshly sorted from dissected adductors as described below and RNA was extracted. Quantitative RT-PCR was perfouned with commercially available or homemade primers and probes for the studied genes. The assay ID (Applied Biosystems, Foster City, Calif.) or the sequence of primers and probes (when homemade) are listed in Table 5. RNA levels of Tie-2, SDF1 and PDGFB after inhibition of NF-κB pathway were measured by qRT-PCR on pMØ exposed for twelve hours to 500 nM 6-amino-4-(4-phenoxyphenylethylamino)quinazoline. […] After 24 hours, cells were harvested for RNA extraction and cDNA preparation.

PHD3 = PHD3 gene knockdown (qRT-PCR) in macrophages; type: cell-based, mice
Method: Transduction and Transfection of Bone Marrow-Derived Macrophages and Lung Endothelial Cells: To express an inducible NF-κB responsive firefly luciferase reporter, commercially available lentiviral vector particles (LV) were used (Cignal Lenti NF-κB Reporter; SABiosciences). 2.5×10^5 bone marrow-derived macrophages and 10^5 primary lung endothelial cells (isolated as previously described (Mazzone et al., 2009, see above)) were seeded in a 24-well plate in DMEM 10% FBS or M199 20% FBS for eight hours. Cells were transduced with 10^8 TU/ml. Eight hours after transduction, the medium wash was replaced. After 48 hours, cells were stimulated with TNFα (20 ng/mL) for eight hours and the same amount of protein extract was read in a luminometer. For PHD3 silencing, siRNA oligonucleotides were designed using the Invitrogen online siRNA design tool (world wide web at maidesigner.invitrogen.com). The following sequences (sense strands) and target positions were used: PHD3 siRNA: 5′-[…]-3′ (SEQ ID NO:1); scramble siRNA:5′-[…]-3′ (SEQ ID NO:2). In brief, one day after the transduction of macrophages with LV, cells were transfected using Lipofectamine 2000 (Invitrogen) according to the manufacturer's instructions. Preparation of the oligonucleotide-Lipofectamine 2000 complexes was done as followed: 25 pmol siRNA oligonucleotide (stock: 20 μM) was diluted in 50 μl Opti-MEM I reduced serum medium. Lipofectamine 2000 (1.5 μl) was diluted in 50 μl Opti-MEM I reduced serum medium and incubated for five minutes at room temperature. siRNA oligonucleotides were gently mixed with Lipofectamine 2000 and allowed to incubate at room temperature for twenty minutes to form complexes. Just before transfection, the cell culture medium was removed and cells were rinsed twice with serum-free Opti-MEM I medium. The Lipofectamine 2000-siRNA oligonucleotide complexes were added to each well in 400 μl of serum-free Opti-MEM medium for five hours. Afterwards, cells were incubated in complete medium for 48 hours at 37° C. in a CO2 incubator and assayed for gene knockdown (qRT-PCR) and luciferase activity. […]

NF-κB = assay: NF-κB-responsive firefly luciferase reporter assay in bone marrow-derived macrophages; type: cell-based, mice
Method: Transduction and Transfection of Bone Marrow-Derived Macrophages and Lung Endothelial Cells: To express an inducible NF-κB responsive firefly luciferase reporter, commercially available lentiviral vector particles (LV) were used (Cignal Lenti NF-κB Reporter; SABiosciences). 2.5×10^5 bone marrow-derived macrophages and 10^5 primary lung endothelial cells (isolated as previously described (Mazzone et al., 2009, see above)) were seeded in a 24-well plate in DMEM 10% FBS or M199 20% FBS for eight hours. Cells were transduced with 10^8 TU/ml. Eight hours after transduction, the medium wash was replaced. After 48 hours, cells were stimulated with TNFα (20 ng/mL) for eight hours and the same amount of protein extract was read in a luminometer. For PHD3 silencing, siRNA oligonucleotides were designed using the Invitrogen online siRNA design tool (world wide web at maidesigner.invitrogen.com). The following sequences (sense strands) and target positions were used: PHD3 siRNA: 5′-[…]-3′ (SEQ ID NO:1); scramble siRNA:5′-[…]-3′ (SEQ ID NO:2). In brief, one day after the transduction of macrophages with LV, cells were transfected using Lipofectamine 2000 (Invitrogen) according to the manufacturer's instructions. Preparation of the oligonucleotide-Lipofectamine 2000 complexes was done as followed: 25 pmol siRNA oligonucleotide (stock: 20 μM) was diluted in 50 μl Opti-MEM I reduced serum medium. Lipofectamine 2000 (1.5 μl) was diluted in 50 μl Opti-MEM I reduced serum medium and incubated for five minutes at room temperature. siRNA oligonucleotides were gently mixed with Lipofectamine 2000 and allowed to incubate at room temperature for twenty minutes to form complexes. Just before transfection, the cell culture medium was removed and cells were rinsed twice with serum-free Opti-MEM I medium. The Lipofectamine 2000-siRNA oligonucleotide complexes were added to each well in 400 μl of serum-free Opti-MEM medium for five hours. Afterwards, cells were incubated in complete medium for 48 hours at 37° C. in a CO2 incubator and assayed for gene knockdown (qRT-PCR) and luciferase activity. To assess if the increased NFkB activity observed in PHD2^+/− macrophages was dependent on the hydroxylase activity of PHD2, 48 hours before transduction, 4×10^6 bone marrow-derived macrophages were resuspended in 240 μl of Opti-MEM and were electroporated (250 V, 950 uF, ∝ Ω) with 7 μg of plasmids expressing a wild-type PHD2 (PHD2^wt) or a PHD2 containing a mutation at the catalytic site (PHD2^H313A).

[1] = test system: RAOSMC (Rat Aortic Smooth Muscle Cells); assay: SMC growth assay (WST-1) in coculture with PHD2+/- macrophages; type: cell-based; conditions: AMD3100, imatinib, alone or combined
Method: (§1) Cell Migration and Viability Assays: Migration and proliferation of SMCs and ECs were assessed by using 8 μm-pore Transwell peimeable plate for migration assays and 0.4 μm-pore Transwell permeable plate for proliferation assays (Corning Life Science). To determine cell migration toward the factors secreted by pMØ, pMØ were cultured in the lower chamber for twelve hours in RPMI 1% FBS or in M-199 1% FBS (migration assay), or 48 hours in DMEM-F12 1% FBS or in M-199 1% FBS (proliferation assay). For migration assays, hCASMC (Human coronary artery smooth muscle cells; from Lonza) and HUVEC (Human umbilical vein endothelial cells; from Lonza) were starved for twelve hours in their own medium at 1% FBS and, therefore, seeded in the upper chamber (5×10^3 cells in 200 μl of medium 1% FBS), with or without AMD3100 (1 μg/ml, Sigma-Aldrich, Dorset, U.K) and imatinib (2.5 μg/ml, Novartis). SMCs and HUVECs were incubated for two days or 24 hours, respectively, and migrated cells were fixed with 4% PFA, stained with 0.25% crystal violet/50% methanol and counted under the microscope. VEGF (100 ng/mL, R&D), PDGFB (100 ng/mL, R&D) or SDF 1 (100 ng/mL, R&D) were used as positive controls. […] The cell proliferative ability was then analyzed using WST-1 Cell Proliferation Assay (Roche Applied Biosciences) according to the manufacturer instructions after 24 hours of coculture with the pMØ. […]

[2] = test system: secondary and tertiary collateral arterioles; assay: Collateral vessel formation in bone marrow transplanted mice treated with AMD3100/imatinib (gelatin bismuth angiography); type: in vivo; conditions: for increased formation of second generation collateral branches / third generation collaterals: HE→WT mice, daily AMD3100 5 mg/kg or imatinib 50 mg/kg alone; for number of collateral branch arteries: WT→WT mice, alone or in combination
Method: Mouse Model of Hindlimb Ischemia: To induce hind limb ischemia, unilateral or bilateral ligations of the femoral artery and vein (proximal to the popliteal artery) and the cutaneous vessels branching from the caudal femoral artery side branch were performed without damaging the nervus femoralis (Luttun et al., Nat. Med. 8:831-840, 2002). By using this procedure, collateral flow to adductor muscles is preserved via arterioles branching from the femoral artery, therefore, 50% up to 60% of perfusion is preserved by this method. Two superficial preexisting collateral arterioles connecting the femoral and saphenous arteries were used for analysis. Functional perfusion measurements of the collateral region were performed using a Lisca PIM II camera (Gambro). Gelatin bismuth-based angiography was perfottned as described (Carmeliet et al., Nat. Med. 7:575-583, 2001) and analyzed by photoangiographs (Nikon D1 digital camera). Collateral side branches were categorized as follows: second-generation collateral arterioles directly branched off from the main collateral, whereas third-generation collateral arterioles were orientated perpendicularly to the second-generation branches. The number of secondary and tertiary collateral arterioles was counted. After perfusion-fixation, the muscle tissue between the two superficial collateral arterioles (adductor) was post-fixed in 2% paraformaldehyde (PFA) and paraffin-embedded, and were morphometrically analyzed. An endurance treadmill-running test was perfatmed at 12, 24, 48, and 72 hours after bilateral femoral artery ligation.
(§2) Bone Marrow (BM) Transplantation and Hematological Analysis: Balb/c WT and PHD2^+/− recipient mice were irradiated with 7.5 Gy. Subsequently, 5×10^6 bone marrow cells from green fluorescent protein^+ (GFP^+) WT or GFP^+ PHD2^+/− mice were injected intravenously via the tail vein. After one week, saline or AMD3100 (5 mg/kg) was administered intravenously and saline or imatinib ([…]) was administered by oral gavage for four weeks. Femoral artery ligation, treadmill running test and bismuth angiography were performed at six weeks after bone marrow reconstitution. Red and white blood cell count was determined using a hemocytometer on peripheral blood collected in heparin with capillary pipettes by retro-orbital bleeding. To assess the effect of acute deletion of macrophage-borne PHD2 on arteriogenesis, PHD2^Rosa26CreERT;lox/wt bone marrows were transplanted into lethally irradiated WT recipient mice. After five weeks, transplanted mice were injected i.p. with tamoxifen (1 mg/mouse; Sigma) or vehicle for five days. TEM quantification and femoral artery ligation were performed ten days after tamoxifen treatment as explained above. The bone marrow of PHD2^WT;Tie2:GFP or PHD2^HE;Tie2:GFP mice was transplanted in lethally irradiated WT mice. After five weeks, mice were injected systemically (5×10^11 vp) and locally (5×10^9 vp in two points of the adductor) with an AAV9 encoding the mouse extracellular domain of Tie2 fused to a flag tag (AAV9:sTie2). AAV9 encoding the human serum albumin was used as control. One week after injection of the viral vector, mice were subjected to femoral artery ligation. Blood and adductor samples were harvested at baseline and 72 hours post-ischemia and used to sort CD115^+GFP^+ circulating monocytes and F4/80^+GFP^+ macrophages.

[3] = test system: hCASMC (Human coronary artery smooth muscle cells); assay: SMC migration (Transwell) toward PHD2+/- macrophages; type: cell-based; conditions: AMD3100 1 μg/ml, imatinib 2.5 μg/ml, alone or combined
Method: as §1

[4] = test system: collateral branches, circulating TEMs; assay: Acute PHD2 deletion by tamoxifen in HERosa26CreERT→WT mice: TEMs, collaterals, ischemic damage; type: in vivo
Method: as §2

[5] = tamoxifen 1 mg/mouse for five days

## VEGF
PHD2
  PHD2 transcripts: did not affect

## 5′-GCCGGCUGGGCAAAUACUAUGUCA-3′ (SEQ ID NO:1) [PHD3 siRNA]
PHD3; PHD2LysCre;lox/lox macrophages
  knockdown of PHD3 vs scramble control: 37±0.01%
PHD3; PHD2LysCre;lox/wt macrophages
  knockdown of PHD3 vs scramble control: 60±0.04%
PHD3; PHD2LysCre;wt/wt macrophages
  knockdown of PHD3 vs scramble control: 63±0.03%
NF-κB; PHD2LysCre;lox/lox macrophages
  induction of NF-κB activity vs scramble control: 70%
NF-κB; PHD2LysCre;lox/wt macrophages
  induction of NF-κB activity vs scramble control: 14%
NF-κB; PHD2LysCre;wt/wt macrophages
  induction of NF-κB activity vs scramble control: 22%

## MCP1: monocyte chemotactic protein-1, ischemia-induced cytokine
PHD2
  PHD2 transcripts: did not affect

## c1cc(CN2CCCNCCNCCCNCC2)ccc1CN1CCCNCCNCCCNCC1 [AMD3100]
[1]
  increased SMC growth by PHD2+/- macrophages: abrogated
[2]
  increased formation of second generation collateral branches: only partially prevented
  third generation collaterals: affected
  number of collateral branch arteries: not affected
[3]
  migration of SMCs toward PHD2+/- macrophages: not effective

## SDF1: Stromal cell-derived factor 1, alpha chemokine
PHD2
  PHD2 transcripts: did not affect

## CC/C(=C(\c1ccccc1)c1ccc(OCCN(C)C)cc1)c1ccccc1 [tamoxifen]
[4]; 72 hours after femoral artery ligation
  ischemic damage: greatly reduced
[4]; 14 days after tamoxifen 1 mg/mouse for five days, vs vehicle
  circulating TEMs: almost three-fold increased
[4]; [5]
  secondary collateral branches, abundance vs vehicle: 1.6 times
  tertiary collateral branches, abundance vs vehicle: 2.3 times

## Cc1ccc(NC(=O)c2ccc(CN3CCN(C)CC3)cc2)cc1Nc1nccc(-c2cccnc2)n1 [imatinib]
[1]
  increased SMC growth by PHD2+/- macrophages: abrogated
[2]
  increased formation of second generation collateral branches: only partially prevented
  third generation collaterals: affected
  number of collateral branch arteries: not affected
[3]
  migration of SMCs toward PHD2+/- macrophages: not effective

B1: angiopoietin-2: Tie2 ligand cytokine (Prospec) (protein, UniProt O15123 19-496, looked up)
Angiopoietin-2: YNNFRKSMDSIGKKQYQVQHGSCSYTFLLPEMDNCRSSSSPYVSNAVQRDAPLEYDDSVQRLQVLENIMENNTQWLMKLENYIQDNMKKEMVEIQQNAVQNQTAVMIEIGTNLLNQTAEQTRKLTDVEAQVLNQTTRLELQLLEHSLSTNKLEKQILDQTSEINKLQDKNSFLEKKVLAMEDKHIIQLQSIKEEKDQLQVLVSKQNSIIEELEKKIVTATVNNSVLQKQQHDLMETVNNLLTMMSTSNSAKDPTVAKEEQISFRDCAEVFKSGHTTNGIYTLTFPNSTEEIKAYCDMEAGGGGWTIIQRREDGSVDFQRTWKEYKVGFGNPSGEYWLGNEFVSQLTNQQRYVLKIHLKDWEGNEAYSLYEHFYLSSEELNYRIHLKGLTGTAGKISSISQPGNDFSTKDGDNDKCICKCSQMLTGGWWFDACGPSNLNGMYYPQRQNTNKFNGIKWYYWKGSGYSLKATTMMIRPADF
PHD2; WT monocytes/macrophages, only at 50 ng/ml
  reduction of PHD2 levels: 15%

B2: PlGF: ischemia-induced cytokine (protein, UniProt P49763 19-221, looked up)
Placenta growth factor: LPAVPPQQWALSAGNGSSEVEVVPFQEVWGRSYCRALERLVDVVSEYPSEVEHMFSPSCVSLLRCTGCCGDENLHCVPVETANVTMQLLKIRSGDRPSYVELTFSQHVRCECRHSPGRQSPDMPGDFRADAPSFLPPRRSLPMLFRMEWGCALTGSQSAVWPSSPVPEEIPRMHPGRNGKKQQRKPLREKMKPERCGDAVPRR
PHD2
  PHD2 transcripts: did not affect

B3: PDGFB: platelet-derived growth factor beta protein (protein, UniProt P01127 82-190, looked up)
Platelet-derived growth …: SLGSLTIAEPAMIAECKTRTEVFEISRRLIDRTNANFLVWPPCVEVQRCSGCCNNRNVQCRPTQVQLRPVQVRKIEIVRKKPIFKKATVTLEDHLACKCETVAAARPVT
PHD2
  PHD2 transcripts: did not affect
